Test results: patent US20070048377A1, “Drug compositions containing controlled release hypromellose matrices” (priority 2005, published 2007)
Counter-ions that a name gives are not always drawn.

What was measured:
[1] = Verapamil Hydrochloride and PVAP chemical interaction (precipitate on combining saturated methanol solutions); assay type: physicochemical; conditions: 50 grams of each combined
Description: To determine that the influence on the drug release is not due to the chemical interaction between Verapamil HCL and PVAP, following investigation was made.
• a. Purpose—To determine if change in drug release is due to polymer drug interaction, where increasing PVAP would potentially cause decreased drug release due to binding with the drug. • b. Method— • i. Dissolved 20 grams of Verapamil Hydrochloride in 52 grams of methanol to form a saturated solution. • ii. Dissolved 10 grams of PVAP in 52 grams of methanol to form a saturated solution. • iii. A clear solution was obtained for each sample. • iv. 50 grams of each solution was combined and examined for the presence of a precipitate. • v. […] Conclusion • A lack of chemical interaction has been shown between PVAP and the drug which is contra to some of previously published studies on the interactions of Verapamil HCl with enteric polymers. It also rules out that the reduction of drug release by using PVAP is due to a chemical interaction with Verapamil HCl.

[2] = Viscosity investigation (Brookfield viscometer DV-II+); assay type: physicochemical
Description: • a. Dispersion Characterization • PVAP, HPMC, or Verapamil HCl was dispersed in 0.1N HCl or phosphate buffer, pH 6.8. Viscosity was characterized neat and in binary or tertiary mixtures. • b. Dry Blending Mixtures Characterization • i.

In the case of `COc1ccc(CCN(C)CCCC(C#N)(c2ccc(OC)c(OC)c2)C(C)C)cc1OC` (stereo not drawn) [Verapamil HCl - 48% solution, Verapamil Hydrochloride], the “presence of a precipitate (chemical interaction with PVAP)” value [1] is reported as “no precipitate formed”, the Viscosity ([2]; 0.1N HCl) is reported as 50.8 cP and the Viscosity ([2]; Phosphate Buffer, pH 6.8) is reported as 12.4 cP.
